The target in test [1] is T1, XOD (Bos taurus, UniProt P80457).
T1 construct: purchased Sigma-Aldrich (Shanghai, China)
The experiment in a line: UF-HPLC screening, binding degree with XOD. To be noted: PCR extraction 5 mg/mL, 4 U/mL XOD, 37 °C 60 min, active vs inactive enzyme peak area. The method, then:
(§1) The UF experiment was performed according to the method described in the literature, with slight modifications. In the experimental group, 200 µL of the PCR extraction (5 mg/mL) was mixed with 200 µL of 3 enzyme solutions (200 U/mL of TYR, 4 U/mL of XOD, and 6 U/mL of α-GLU, respectively). The mixtures were incubated at 37 °C for 60 min, and then 200 μL of each of them was transferred to a 3 KDa molecular weight cut-off ultrafiltration centrifuge tube to separate the unbound compounds from the enzyme–ligand complexes by centrifugation (9400× g, 30 min). Finally, the ultrafiltration filter was washed three times with 5% methanol–PBS under centrifugal conditions (9400× g, 30 min) to completely remove any unbound components. The concentration and pH of the PBS used for the different enzymes were the same as for the offline inhibition tests.
(§2) Finally, the unbound component solutions of the experimental and control groups were analyzed by HPLC. […] Binding degree = (1 − P2/P1) × 100%(2)
(§3) HPLC condition: An Agilent 1260 high-performance liquid chromatography system (Agilent Technologies, Santa Clara, CA, USA), equipped with a quaternary pump system, an auto-sampler, a column oven, and a diode array detector, was employed in the current experiment. The sample was separated on an Agilent Poroshell 120 EC-C18 column (100 mm × 4.6 mm, 2.7 μm). The column temperature was set at 30 °C. The mobile phase was 0.1% aqueous formic acid (A) and acetonitrile (B), with a gradient elution procedure of 5% B (0 min), 5% B (3 min), 20% B (23 min), 24% B (28 min), 60% B (32 min), and 100% B (38 min). The flow rate was 0.6 mL/min. The detection wavelength was set at 290 nm, and the injection volume was 5.0 µL.

For a further test, the target named is T2, tyrosinase (TYR) (Agaricus bisporus, UniProt C7FF04).
T2 construct: purchased Sigma-Aldrich (Shanghai, China)
The test can be described thus: Tyrosinase (TYR) inhibition test, offline 96-well microplate. In kind it is biochemical. The method, then: The reaction was incubated at 25 °C for 50 min. […] Inhibition (%) = [(Abscontrol − Abssample)/Abscontrol] × 100%(1)

Test [2] has as its system TYR. The test can be described thus: UF-HPLC screening, binding degree with TYR. Conditions: PCR extraction 5 mg/mL, 200 U/mL TYR, 37 °C 60 min, active vs inactive enzyme peak area. On the procedure:
as §1, §2, §3

The test system of test [3] is α-GLU. The experiment in a line: UF-HPLC screening, binding degree with α-GLU. Conditions: PCR extraction 5 mg/mL, 6 U/mL α-GLU, 37 °C 60 min, active vs inactive enzyme peak area. On the procedure: as §1, §2, §3
The subject of test [4] is TYR. The test can be described thus: Kinetic analysis (Lineweaver–Burk) on TYR. It counts as biochemical. To be noted: Lineweaver–Burk plot, L-tyrosine 1.0~5.0 mM, TYR 200 U/mL. On the procedure:
(§4) Subsequently, kinetic analysis was conducted using Lineweaver–Burk plots to investigate the inhibition modes on enzymes caused by methylgallate and polydatin. Competitive, noncompetitive, and mixed inhibitions are three common modes in enzyme kinetic analysis. […] All of the straight lines almost intersect on the Y axis at a certain point. […] All of the straight lines almost intersect on the X axis at a certain point. […] All of the straight lines usually intersect in the quadrants at one point.
(§5) In this work, Lineweaver–Burk was used to investigate the inhibition type of methylgallate and polydatin on enzymes. For TYR, the concentration of the enzyme was kept constant at 200 U/mL, and various concentrations of L-tyrosine (1.0~5.0 mM) were prepared. Various concentrations of methylgallate (0.0~1.3 mM) and polydatin (0.0~0.4 mM) were also provided. For XOD, the concentration of the enzyme was kept constant at 0.05 U/mL, and various concentrations of xanthin (0.06~0.50 mM) were prepared. Various concentrations of polydatin (0.0~0.5 mM) were also provided. For α-GLU, the concentration of the enzyme was kept constant at 0.15 U/mL, and various concentrations of ρNPG (0.8~5.0 mM) were prepared. Various concentrations of polydatin (0.0~3.6 mM) were also provided. GraphPad Prism 5.0 software (USA) was used for the calculation.

The target in another test is xanthine oxidase (XOD) (Bos taurus, UniProt P80457). The experiment in a line: Xanthine oxidase (XOD) inhibition test, offline 96-well microplate.
Test [5] relates to α-GLU. The experiment in a line: Kinetic analysis (Lineweaver–Burk) on α-GLU. In kind it is biochemical. Conditions: Lineweaver–Burk plot, ρNPG 0.8~5.0 mM, α-GLU 0.15 U/mL. The method, then:
as §4, §5

Test [6] deals with T1, XOD. The test can be described thus: Kinetic analysis (Lineweaver–Burk) on XOD. It counts as biochemical. To be noted: Lineweaver–Burk plot, xanthin 0.06~0.50 mM, XOD 0.05 U/mL. On the procedure:
as §4, §5

The source of these data is paper PMC10221946, “Screening of Tyrosinase, Xanthine Oxidase, and α-Glucosidase Inhibitors from Polygoni Cuspidati Rhizoma et Radix by Ultrafiltration and HPLC Analysis” (Molecules, 2023).

T1 sequence (P80457 whole entry): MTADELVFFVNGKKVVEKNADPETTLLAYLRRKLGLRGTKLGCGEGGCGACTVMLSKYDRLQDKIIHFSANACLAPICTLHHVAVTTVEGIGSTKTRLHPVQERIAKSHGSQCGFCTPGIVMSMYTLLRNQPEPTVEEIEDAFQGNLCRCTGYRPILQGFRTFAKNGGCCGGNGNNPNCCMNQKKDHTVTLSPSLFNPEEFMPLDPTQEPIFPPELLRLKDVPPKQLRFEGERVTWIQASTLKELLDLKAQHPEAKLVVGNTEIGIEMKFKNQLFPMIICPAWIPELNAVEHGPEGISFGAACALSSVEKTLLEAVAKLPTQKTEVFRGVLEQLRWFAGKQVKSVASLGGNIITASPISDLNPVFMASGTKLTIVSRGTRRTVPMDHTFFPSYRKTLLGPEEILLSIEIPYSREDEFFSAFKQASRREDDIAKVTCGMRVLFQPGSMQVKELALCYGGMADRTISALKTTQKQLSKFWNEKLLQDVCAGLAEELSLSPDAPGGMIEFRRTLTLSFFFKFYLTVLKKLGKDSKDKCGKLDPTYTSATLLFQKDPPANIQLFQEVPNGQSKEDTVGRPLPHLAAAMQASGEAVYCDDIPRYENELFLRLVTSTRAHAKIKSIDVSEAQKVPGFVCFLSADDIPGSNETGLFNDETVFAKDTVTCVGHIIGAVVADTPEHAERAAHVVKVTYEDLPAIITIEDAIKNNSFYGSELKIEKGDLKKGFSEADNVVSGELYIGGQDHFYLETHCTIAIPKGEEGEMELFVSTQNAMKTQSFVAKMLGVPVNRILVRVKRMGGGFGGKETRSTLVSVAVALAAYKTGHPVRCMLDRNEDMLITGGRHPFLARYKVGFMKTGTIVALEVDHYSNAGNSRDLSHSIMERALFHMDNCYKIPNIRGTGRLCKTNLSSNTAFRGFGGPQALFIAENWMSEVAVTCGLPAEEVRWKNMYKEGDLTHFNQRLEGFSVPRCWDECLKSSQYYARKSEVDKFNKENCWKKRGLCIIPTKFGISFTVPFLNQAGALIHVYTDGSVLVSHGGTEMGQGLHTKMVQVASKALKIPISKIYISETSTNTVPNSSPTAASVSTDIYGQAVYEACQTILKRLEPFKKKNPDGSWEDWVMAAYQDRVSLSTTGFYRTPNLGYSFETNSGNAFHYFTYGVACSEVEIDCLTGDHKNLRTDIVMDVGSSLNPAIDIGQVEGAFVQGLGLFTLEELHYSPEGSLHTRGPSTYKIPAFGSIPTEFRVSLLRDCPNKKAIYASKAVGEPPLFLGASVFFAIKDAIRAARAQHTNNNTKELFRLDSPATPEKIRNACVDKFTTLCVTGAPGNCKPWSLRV
T2 sequence (C7FF04 1-392 limits assumed): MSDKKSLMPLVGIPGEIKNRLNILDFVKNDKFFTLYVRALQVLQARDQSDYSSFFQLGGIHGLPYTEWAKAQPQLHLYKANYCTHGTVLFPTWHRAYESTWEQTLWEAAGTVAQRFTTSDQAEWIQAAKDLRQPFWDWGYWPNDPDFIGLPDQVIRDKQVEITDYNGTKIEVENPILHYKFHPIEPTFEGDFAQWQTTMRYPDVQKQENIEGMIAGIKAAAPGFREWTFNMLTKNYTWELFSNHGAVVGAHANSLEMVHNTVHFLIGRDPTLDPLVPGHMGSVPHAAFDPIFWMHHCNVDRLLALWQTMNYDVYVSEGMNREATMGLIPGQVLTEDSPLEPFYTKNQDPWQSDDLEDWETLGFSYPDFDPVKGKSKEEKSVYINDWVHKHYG
xanthine oxidase (XOD), sequence (P80457 whole entry): as the sequence (P80457 whole entry) above
Description for xanthine oxidase (XOD): In the XOD inhibition assay, each well contained 30 μL of the PCR sample, 30 μL of XOD (0.05 U/mL, dissolved in 200 mM of phosphate buffer, pH 8.5), and 15 μL of NBT (2 mg/mL, dissolved in 200 mM of phosphate buffer, pH 8.5). […] The reaction was stopped by adding 15 µL of SDS (10%). The reaction solution was tested at 560 nm.

As for `COC(=O)c1cc(O)c(O)c(O)c1` [Methylgallate (1), Methylgallate], the “Binding degree: XOD” value at XOD [1] was 0.00%. The IC50 against tyrosinase (TYR) was 555 µM. Also, the “Binding degree: TYR” value with TYR [2] was determined as 36.03%. Besides, the “Binding degree: α-GLU” value in the test with α-GLU [3] came out at 0.00%. Besides, the “inhibition mode on TYR” value in the test on TYR [4] was “noncompetitive type”.

Turning to `OC[C@H]1O[C@@H](Oc2cc(O)cc(/C=C/c3ccc(O)cc3)c2)[C@H](O)[C@@H](O)[C@@H]1O` [Polydatin (5), Polydatin], the IC50 was 2.13 mM against xanthine oxidase (XOD) and 188 µM against tyrosinase (TYR). For the same molecule, the “Binding degree: XOD” value on XOD [1] (listed as Peak 5) was 55.80%. The “Binding degree: TYR” value with TYR [2] (listed as Peak 5) came out at 80.74%. In addition, in the test on α-GLU [5], the “inhibition mode on α-GLU” value is listed as “mixed type”. Further, in the test on α-GLU [3] (listed as Peak 5), the “Binding degree: α-GLU” value is on record as 16.51%. In the test on TYR [4], the “inhibition mode on TYR” value is on record as “mixed type”. Moreover, on XOD [6], the “inhibition mode on XOD” value was “competitive type”.

For `OC[C@H]1O[C@@H](Oc2cc(O)cc(/C=C/c3ccc(O)cc3)c2)[C@H](O)[C@@H](O)[C@@H]1O` [Resveratrol-5-O-D-glucoside (7), Resveratrol-5-O-D-glucoside], on XOD [1] (listed as Peak 7), the “Binding degree: XOD” value stood at 11.65%. Moreover, in the test with TYR [2] (listed as Peak 7), the “Binding degree: TYR” value was found to be 70.51%. The “Binding degree: α-GLU” value in the test with α-GLU [3] (listed as Peak 7) is listed as 0.00%.

Take `OC[C@H]1O[C@@H](Oc2ccc(/C=C/c3cc(O)cc(O[C@@H]4O[C@H](CO)[C@@H](O)[C@H](O)[C@H]4O)c3)cc2)[C@H](O)[C@@H](O)[C@@H]1O` [Polydatin-4′-O-D-glucoside (3), Polydatin-4′-O-D-glucoside]: on XOD [1], the “Binding degree: XOD” value worked out at 0.00%. The “Binding degree: TYR” value with TYR [2] is listed as 57.64%. Besides, the “Binding degree: α-GLU” value with α-GLU [3] stood at 0.00%.

As to `OC[C@H]1O[C@@H](Oc2ccc(/C=C/c3cc(O)cc(O)c3)cc2)[C@H](O)[C@@H](O)[C@@H]1O` [Resveratrol-4′-O-D-glucoside (4), Resveratrol-4′-O-D-glucoside], the “Binding degree: XOD” value at XOD [1] amounted to 30.66%. Further, the “Binding degree: TYR” value with TYR [2] worked out at 71.32%. The “Binding degree: α-GLU” value with α-GLU [3] was 14.58%.

As to `O=C(O)CC(=O)OCC1OC(Oc2cc(O)cc(C=Cc3ccc(O)cc3)c2)C(O)C(O)C1O` (stereo not shown) [Malonyl glucoside resveratrol (6), Malonyl glucoside resveratrol], on XOD [1], the “Binding degree: XOD” value was 49.77%. In addition, the “Binding degree: TYR” value in the test with TYR [2] is given as 57.00%. Moreover, the “Binding degree: α-GLU” value in the test on α-GLU [3] was 11.90%.

Take `O=C(OC[C@H]1O[C@@H](OC(=O)c2cc(O)c(O)c(O)c2)[C@H](O)[C@@H](O)[C@@H]1O)c1cc(O)c(O)c(O)c1` [1,6-Di-O-galloyl-D-glucose (2), 1,6-Di-O-galloyl-D-glucose]: the “Binding degree: XOD” value on XOD [1] is 50.69%. Moreover, the “Binding degree: TYR” value in the test on TYR [2] was 77.53%. Further, the “Binding degree: α-GLU” value in the test on α-GLU [3] amounted to 0.00%.
